# Experimental data: US5244886A, “11β-phenyl-14βH steroids” (Schering Aktiengesellschaft, priority 1988, dated 1993)
# Experiments:
# [1] = tested on: Antiglucocorticoid effectiveness; assay: Antiglucocorticoid effectiveness in % of RU 486; conditions: RU 486 effectiveness = 100%
# From the text: Antiglucocorticoid effectiveness of compounds A to G;
# the effectiveness is indicated in % of th
# [2] = tested on: mammary gland (tubulo-alveolar gland end pieces); assay: Antiproliferative potency of progesterone antagonists on the mammary gland, bioassay in ovariectomized rats (whole mount, inguinal mammary gland); assay type: in vivo, rat; conditions: 3 days, estrone 10 micrograms + progesterone 3 mg, antagonist 1 mg/animal/day, relative to G = 100%
# Method: The antiproliterative potency of progesterone antagonists on the mammary gland was determined in a bioassay. For this purpose, ovariectomized rats were substituted for 3 days with estrone (10 micrograms) and progesterone (3 mg) and another group at the same time was treated with the following progesterone antagonists (1 mg/animal/day):
# The entire inguinal mammary gland was dissected by performance of the "whole mount" technique (Lyons and Johnson, 1952). Of six animals, the number of tubulo-alveolar gland end pieces is determined by 40 times magnification.
# The antiproliterative potency is expressed in percent of the inhibition of the tubulo-alveolar end pieces corresponding to the following formula:
# (estrone (E)+progesterone (P))-(E+P+G)=100% of treated animals
# (E+P)-(test compound H or I)=X%
SMILES,Antiglucocorticoid effectiveness (in % of RU 486) [1],% inhibition of the tubulo-alveolar end pieces [2]
"CC#C[C@@]1(O)CC[C@@H]2[C@@H]3CCC4=CC(=O)CCC4=C3[C@@H](c3ccc(C(C)=O)cc3)C[C@@]21C [A, 11beta-(4-acetylphenyl)-17alpha-hydroxy-17-(prop-1-inyl)-14beta-estra-4,9-dien-3-one]",1%,
"C#CC[C@@]1(O)CC[C@@H]2[C@@H]3CCC4=CC(=O)CCC4=C3[C@@H](c3ccc(C(C)=O)cc3)C[C@@]21C [B, 11beta-(4-acetylphenyl)-17alpha-hydroxy-17-(prop-2-inyl)-14beta-estra-4,9-dien-3-one]",1%,
"COc1ccc2c(c1)C[C@]13CCC(=O)C=C1CC[C@@H]1[C@@H]3[C@@H]2C[C@@]2(C)[C@@H]1CC[C@]2(O)CCCO [C, 17-hydroxy-17beta-(3-hydroxypropyl)-11beta,19-(4-methoxy-o-phenylene)-14beta-androst-4-en-3-one]",0%,
"C[C@]12C[C@@H]3c4ccc(-c5cccnc5)cc4C[C@]45CCC(=O)C=C4CC[C@H]([C@H]35)[C@H]1CC[C@]2(O)CCCO [D, 17-hydroxy-17beta-(3-hydroxypropyl)-11beta,19-(4-(3-pyridyl)-o-phenylene]-14beta-androst-4-en-3-one]",0%,
"C=Cc1ccc2c(c1)C[C@]13CCC(=O)C=C1CC[C@@H]1[C@@H]3[C@@H]2C[C@@]2(C)[C@@H]1CC[C@]2(O)CCCO [E, 17-hydroxy-17beta-(3-hydroxypropyl)-11beta,19-(4-vinyl-o-phenylene)-14beta-androst-4-en-3-one]",1%,
"CN(C)c1ccc([C@H]2C[C@@]3(C)[C@H](CC[C@]3(O)CCCO)[C@@H]3CCC4=CC(=O)CCC4=C32)cc1 [F, 11beta-(4-dimethylaminophenyl)-17alpha-hydroxy-17-(3-hydroxypropyl)-14beta-estra-4,9-dien-3-one, reference compound]",2%,
"CC#C[C@]1(O)CC[C@H]2[C@@H]3CCC4=CC(=O)CCC4=C3[C@@H](c3ccc(C(C)=O)cc3)C[C@@]21C [G, 11beta-(4-acetylphenyl)-17beta-hydroxy-17alpha-(1-propinyl)-4,9-estradien-3-one]",,100%
"C[C@]12C[C@H](c3ccc(-c4cccnc4)cc3)C3=C4CCC(=O)C=C4CC[C@H]3[C@H]1CC[C@]2(O)CCCO [H, 11beta-[4-(3-pyridyl)phenyl]-17alpha-hydroxy-17-(3-hydroxypropyl)-14beta-estra-4,9-dien-3-one]",,92%
"CN(C)c1ccc([C@H]2C[C@@]3(C)[C@H](CC[C@]34CCCO4)[C@@H]3CCC4=CC(=O)CCC4=C32)cc1 [I, 11beta-(4-dimethylaminophenyl)-4,5-dihydro-spiro[14beta-estra-4,9-diene-17alpha,2'(3'H)-furan]-3-one]",,13%
